According to patent publication US20060052404A1, “Pharmaceutical formulations comprising substituted xanthine compounds” (priority 2001, published 2006):

How the values were obtained:
[1] = system: human epithelial cell line expressing the CFTR-ΔF508 mutation; settings: cells having the CFTR-ΔF508 mutation; cited from earlier work
[2] = Mutagenicity and adverse side effects of oral doses in animal model systems; assay type: in vivo; settings: oral doses to rat, guinea pig, mouse or dog model systems
[3] = target: CFTR-ΔF508 (Homo sapiens, UniProt P13569, DEL508-508); settings: cited from earlier work
[4] = target: CFTR-ΔF508 NBF-1 (Homo sapiens, UniProt P13569, DEL508-508); settings: cited from earlier work
[5] = target: isolated CFTR channels (Homo sapiens, UniProt P13569); settings: in vitro lipid bilayers; cited from earlier work
[6] = Adverse side effects of oral doses in human subjects; assay type: in vivo; settings: oral doses to human subjects
[7] = target: NBF-1 region of CFTR (Homo sapiens, UniProt P13569); settings: cited from earlier work
[8] = CPX absorption profile in rats, water vs corn oil formulation, single oral gavage; assay type: in vivo; settings: rat, 1.4 mg/kg single oral gavage, during the course of the experiment
Protocol: Experimental—This study was designed to determine the pharmacokinetics of CPX bioavailability in blood plasma following a single oral administration by oral gavage to male Sprague-Dawley rats. The CPX compound was suspended in either a corn oil or water formulation and administered once via oral gavage at 10 ml/kg of rat weight to two groups of male Sprague-Dawley rats.
The rats were not fasted prior to blood collection. Approximately 0.4 ml of whole blood was collected from each animal into heparinized tubes via puncture of the orbital sinus under 70% CO2/30% O2 anesthesia. Approximately 0.2 ml of plasma was separated by centrifugation and analyzed for CPX concentration using high performance liquid chromatography (HPLC) with mass spectrometric detection. Following the completion of blood collection, all surviving animals were euthanized by carbon dioxide overdose.
Rat plasma CPX concentration as a function of time (in hours) using the two formulations was measured. Each rat in this experiment (n=10) received a 1.4 mg/kg CPX dose, which was equivalent to a 100 mg dose. Ten rats were used at each time point to generate a mean CPX concentration value.

[9] = CPX absorption profiles of four suspension formulations in dogs, single oral dose; assay type: in vivo, male Beagle dogs; settings: dog, 30 mg/kg oral
Protocol: Experimental—This study was designed to determine the relative bioavailability of a single oral CPX dose when administered by gavage to male Beagle dogs. The CPX dosages was administered in a single 30 mg/kg oral dose in four different suspension formulations. These suspension formulations were: • 1) xanthan gum (homogenized), • 2) sodium carboxymethylcellulose [NaCMC] (homogenized), • 3) sodium carboxymethylcellulose [NaCMC] (non-homogenized), and • 4) corn oil (homogenized).
Each formulation contained CPX at a nominal concentration of 60 mg/gram of suspension. […]
Whole blood samples were collected (approx. 3 ml/sample) by jugular venipuncture into sodium heparin-containing collection tubes. […] The whole blood was centrifuged to isolate plasma, and concentrations of CPX in the plasma at these time intervals were determined using high performance liquid chromatography (HPLC) with mass spectrometric detection, with a lower quantitation limit of 1 ng/ml.
The following pharmacokinetic parameters were determined for each experimental CPX formulation: • Cmax—maximum analyte concentration in the plasma, ng/ml • Tmax—time of maximum analyte concentration in the plasma • T1/2—terminal half-life of the drug • AUClast—area under the curve (AUC) from time 0 to the last measurable concentration. […] Expressed as ng·h/ml AUC(0∞)—area under the curve from time 0 to infinity (also written AUCinf or AUC∞)

[10] = system: cell derived from a cystic fibrosis patient; settings: cited from earlier work
[11] = Solubility of CPX in solvents tested; assay type: physicochemical; settings: any of the solvents tested, despite use of co-solvents
From the text: This EXAMPLE describes the CPX formulations used in the present invention. Adequate solubility of CPX was unattainable in any of the solvents tested, even despite the use of co-solvents. This insolubility necessitated the use of the suspension and capsule formulations, as described below. One formulation was left non-homogenized to study the effect of homogenization on bioavailability.

[12] = target: T1, A1 adenosine receptor (Homo sapiens, UniProt P30542); settings: cited from earlier work
T1 sequence (P30542 1-326): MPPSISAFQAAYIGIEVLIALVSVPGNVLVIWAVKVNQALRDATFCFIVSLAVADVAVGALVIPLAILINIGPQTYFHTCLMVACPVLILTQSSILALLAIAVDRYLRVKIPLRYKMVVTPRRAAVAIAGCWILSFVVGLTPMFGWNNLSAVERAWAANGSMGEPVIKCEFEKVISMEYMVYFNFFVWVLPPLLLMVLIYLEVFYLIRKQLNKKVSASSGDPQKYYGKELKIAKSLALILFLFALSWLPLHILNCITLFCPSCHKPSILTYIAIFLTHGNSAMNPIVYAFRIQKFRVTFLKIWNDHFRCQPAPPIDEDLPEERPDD

Chain of CFTR-ΔF508 NBF-1 (P13569 with tags, fused parts or gaps DEL508-508 limits assumed): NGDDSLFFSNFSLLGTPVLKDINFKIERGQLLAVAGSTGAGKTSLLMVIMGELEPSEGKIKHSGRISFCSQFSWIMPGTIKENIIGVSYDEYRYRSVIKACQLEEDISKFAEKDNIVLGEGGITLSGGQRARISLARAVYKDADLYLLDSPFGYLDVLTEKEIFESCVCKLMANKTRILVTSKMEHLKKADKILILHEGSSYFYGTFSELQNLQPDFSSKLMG
Chain of NBF-1 region of CFTR (P13569 423-646 limits assumed): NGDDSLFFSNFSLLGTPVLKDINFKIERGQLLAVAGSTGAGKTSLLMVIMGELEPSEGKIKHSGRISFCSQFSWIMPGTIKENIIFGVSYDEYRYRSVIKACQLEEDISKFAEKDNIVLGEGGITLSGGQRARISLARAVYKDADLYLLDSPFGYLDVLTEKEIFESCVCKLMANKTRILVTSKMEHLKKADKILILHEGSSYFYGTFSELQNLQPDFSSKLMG
Chain of isolated CFTR channels (P13569 whole entry): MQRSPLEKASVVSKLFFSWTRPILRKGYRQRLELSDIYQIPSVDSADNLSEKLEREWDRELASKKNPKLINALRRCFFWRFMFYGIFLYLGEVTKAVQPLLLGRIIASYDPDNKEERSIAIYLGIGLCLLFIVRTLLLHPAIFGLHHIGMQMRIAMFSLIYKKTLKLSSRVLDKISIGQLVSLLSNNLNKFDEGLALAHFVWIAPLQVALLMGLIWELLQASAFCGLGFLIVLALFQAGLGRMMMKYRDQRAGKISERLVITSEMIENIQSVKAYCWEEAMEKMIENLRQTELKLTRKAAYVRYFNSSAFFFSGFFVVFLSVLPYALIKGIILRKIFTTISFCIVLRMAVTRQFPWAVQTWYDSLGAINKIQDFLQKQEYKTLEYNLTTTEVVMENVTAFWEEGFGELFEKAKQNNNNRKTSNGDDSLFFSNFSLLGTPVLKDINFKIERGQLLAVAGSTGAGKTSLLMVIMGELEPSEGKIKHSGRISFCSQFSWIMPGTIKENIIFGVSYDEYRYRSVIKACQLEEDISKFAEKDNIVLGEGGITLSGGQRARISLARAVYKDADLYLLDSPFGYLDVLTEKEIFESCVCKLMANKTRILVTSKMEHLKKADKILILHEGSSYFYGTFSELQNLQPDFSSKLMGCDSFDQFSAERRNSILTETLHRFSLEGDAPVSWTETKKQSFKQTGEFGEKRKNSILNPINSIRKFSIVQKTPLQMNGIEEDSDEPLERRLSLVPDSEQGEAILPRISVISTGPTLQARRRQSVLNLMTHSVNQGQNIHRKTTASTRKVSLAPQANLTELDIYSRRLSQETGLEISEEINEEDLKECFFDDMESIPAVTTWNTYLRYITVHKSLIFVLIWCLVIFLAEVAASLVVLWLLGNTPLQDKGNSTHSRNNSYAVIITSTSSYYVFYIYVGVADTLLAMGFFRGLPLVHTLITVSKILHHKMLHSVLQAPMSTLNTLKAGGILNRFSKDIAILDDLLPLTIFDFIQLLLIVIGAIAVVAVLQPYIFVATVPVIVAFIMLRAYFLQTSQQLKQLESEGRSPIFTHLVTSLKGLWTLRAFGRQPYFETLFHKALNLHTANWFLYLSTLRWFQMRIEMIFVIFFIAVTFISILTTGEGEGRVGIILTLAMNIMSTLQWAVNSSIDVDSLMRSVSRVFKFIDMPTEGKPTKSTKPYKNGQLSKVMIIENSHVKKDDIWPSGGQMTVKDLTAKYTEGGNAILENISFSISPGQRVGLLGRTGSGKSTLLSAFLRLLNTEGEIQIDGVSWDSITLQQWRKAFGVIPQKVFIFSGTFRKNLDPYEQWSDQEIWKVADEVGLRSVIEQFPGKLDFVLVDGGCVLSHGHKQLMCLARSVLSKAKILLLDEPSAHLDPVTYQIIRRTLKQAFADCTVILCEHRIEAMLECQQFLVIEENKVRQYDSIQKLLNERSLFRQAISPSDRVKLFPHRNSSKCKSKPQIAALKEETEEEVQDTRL
Chain of CFTR-ΔF508 (P13569 with tags, fused parts or gaps DEL508-508): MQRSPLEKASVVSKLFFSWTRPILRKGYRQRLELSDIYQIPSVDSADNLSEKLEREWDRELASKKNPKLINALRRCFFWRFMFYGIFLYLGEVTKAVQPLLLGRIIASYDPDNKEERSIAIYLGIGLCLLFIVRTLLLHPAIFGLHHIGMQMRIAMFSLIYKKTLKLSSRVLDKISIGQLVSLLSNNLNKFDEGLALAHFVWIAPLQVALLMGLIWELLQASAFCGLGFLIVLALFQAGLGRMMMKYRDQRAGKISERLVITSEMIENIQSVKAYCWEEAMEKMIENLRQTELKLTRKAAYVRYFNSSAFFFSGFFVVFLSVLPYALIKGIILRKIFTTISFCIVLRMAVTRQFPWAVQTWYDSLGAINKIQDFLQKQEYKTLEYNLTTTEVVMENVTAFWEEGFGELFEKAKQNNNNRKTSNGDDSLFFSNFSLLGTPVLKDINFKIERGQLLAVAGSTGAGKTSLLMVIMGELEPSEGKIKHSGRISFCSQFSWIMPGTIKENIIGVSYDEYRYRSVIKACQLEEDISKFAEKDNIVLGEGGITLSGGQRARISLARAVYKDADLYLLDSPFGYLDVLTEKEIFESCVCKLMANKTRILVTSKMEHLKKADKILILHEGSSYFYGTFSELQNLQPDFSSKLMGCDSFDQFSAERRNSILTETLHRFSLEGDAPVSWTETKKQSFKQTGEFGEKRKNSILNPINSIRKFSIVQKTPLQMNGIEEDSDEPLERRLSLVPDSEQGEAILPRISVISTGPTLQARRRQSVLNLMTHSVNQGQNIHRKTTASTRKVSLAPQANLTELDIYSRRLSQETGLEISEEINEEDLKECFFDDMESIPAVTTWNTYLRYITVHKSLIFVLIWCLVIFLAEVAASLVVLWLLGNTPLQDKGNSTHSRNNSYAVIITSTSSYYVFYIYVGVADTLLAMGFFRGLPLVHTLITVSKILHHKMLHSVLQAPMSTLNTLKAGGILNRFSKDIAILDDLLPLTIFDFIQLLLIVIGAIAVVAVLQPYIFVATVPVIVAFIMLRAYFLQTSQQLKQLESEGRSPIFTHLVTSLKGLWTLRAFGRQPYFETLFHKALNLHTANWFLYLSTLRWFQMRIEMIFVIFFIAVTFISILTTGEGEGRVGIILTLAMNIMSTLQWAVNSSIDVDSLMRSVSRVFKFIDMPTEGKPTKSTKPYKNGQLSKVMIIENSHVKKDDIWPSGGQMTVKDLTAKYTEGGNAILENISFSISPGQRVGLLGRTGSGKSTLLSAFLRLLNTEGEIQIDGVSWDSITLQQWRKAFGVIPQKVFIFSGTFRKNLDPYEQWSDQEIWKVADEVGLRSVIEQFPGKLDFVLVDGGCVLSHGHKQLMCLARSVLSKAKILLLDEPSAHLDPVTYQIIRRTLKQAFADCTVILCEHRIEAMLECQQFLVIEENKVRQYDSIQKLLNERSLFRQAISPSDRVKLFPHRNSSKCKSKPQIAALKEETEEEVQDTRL

Cn1c(=O)c2c(nc(C3CCCCC3)n2C)n(C)c1=O [CHC, cyclohexylcaffeine]
chloride efflux [1]: activating chloride ion efflux

C=CCn1c(=O)c2[nH]c(C3CCCCC3)nc2n(CC=C)c1=O [DAX, N,N-diallylcyclohexylxanthine]
chloride efflux [1]: activating chloride ion efflux

CCCn1c(=O)c2[nH]c(C3CCCC3)nc2n(CCC)c1=O [CPX, 1,3-dipropyl-8-cyclopentylxanthine]
mutagenicity or grossly apparent adverse side effects [2]: does not appear to display any mutagenicity or grossly apparent adverse side effects | intracellular trafficking and maturation of CFTR-ΔF508 [3]: enhances | affinity for CFTR-ΔF508 NBF-1 versus wild-type CFTR NBF-1 [4]: greater | activation of isolated CFTR channels [5]: activates | apparent adverse side effects [6]: no apparent adverse side effects | chloride efflux [1]: promotes chloride efflux | binding to the NBF-1 region of CFTR [7]: binds | mortality or signs of morbidity [8]: no mortality or signs of morbidity | time of measured peak concentrations of CPX in the plasma after oral dosing [9]: ≤ 5 h | chloride efflux [10]: activates | adequate solubility [11]: unattainable | A1 adenosine receptor antagonism [12]: potent

CCCn1c(=O)c2[nH]c(-c3ccc(OCC(=O)NCCN)cc3)nc2n(CCC)c1=O [xanthine amino congener]
chloride efflux [1]: activating chloride ion efflux

1,3-dipropyl-7-methylcyclopenthylxanthine [DP-CPX]
chloride efflux [1]: activating chloride ion efflux
